According to BindingDB's records for doi:10.1016/0896-6273(93)90149-l (The Scripps Research Institute, 1993):
pKi: −log10 of the molar value.

Tests used:
[1] = molecular target: 5-hydroxytryptamine receptor 7 (Rattus norvegicus, UniProt P32305)
[2] = molecular target: T1, 5-hydroxytryptamine receptor 1A (Rattus norvegicus, UniProt P19327)
T1 sequence (P19327 whole entry): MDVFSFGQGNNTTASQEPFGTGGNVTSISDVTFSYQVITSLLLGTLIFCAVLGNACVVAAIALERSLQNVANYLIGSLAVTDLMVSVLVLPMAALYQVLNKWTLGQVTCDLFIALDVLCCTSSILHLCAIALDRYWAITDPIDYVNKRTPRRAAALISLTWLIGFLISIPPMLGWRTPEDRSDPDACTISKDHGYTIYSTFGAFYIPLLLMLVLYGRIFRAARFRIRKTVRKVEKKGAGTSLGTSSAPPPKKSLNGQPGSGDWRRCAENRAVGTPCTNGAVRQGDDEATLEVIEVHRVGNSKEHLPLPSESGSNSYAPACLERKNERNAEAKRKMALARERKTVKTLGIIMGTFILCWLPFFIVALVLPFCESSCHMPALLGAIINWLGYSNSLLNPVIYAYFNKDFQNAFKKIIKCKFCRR

5-hydroxytryptamine receptor 7, sequence (P32305 whole entry): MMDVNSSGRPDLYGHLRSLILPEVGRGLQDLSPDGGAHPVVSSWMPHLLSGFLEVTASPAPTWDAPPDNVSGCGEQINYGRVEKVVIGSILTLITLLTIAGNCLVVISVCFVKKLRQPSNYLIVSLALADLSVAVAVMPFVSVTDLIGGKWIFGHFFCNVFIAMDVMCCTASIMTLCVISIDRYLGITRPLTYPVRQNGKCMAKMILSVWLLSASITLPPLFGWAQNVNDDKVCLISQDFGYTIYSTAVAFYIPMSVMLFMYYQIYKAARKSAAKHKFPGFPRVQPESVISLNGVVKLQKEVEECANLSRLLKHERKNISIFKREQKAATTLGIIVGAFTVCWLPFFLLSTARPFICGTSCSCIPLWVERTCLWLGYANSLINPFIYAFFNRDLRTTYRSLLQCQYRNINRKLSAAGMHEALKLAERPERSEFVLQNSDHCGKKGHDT

SMILES: CCCN(CCC)C1CCc2cccc(O)c2C1 (stereo not given)
- pKi [1]: 7.28

SMILES: Cc1nc2sccn2c(=O)c1CCN1CCC(=C(c2ccc(F)cc2)c2ccc(F)cc2)CC1
- pKi [1]: 7.48

SMILES: CC[C@@H](CO)NC(=O)[C@@H]1C=C2c3cccc4c3c(cn4C)C[C@H]2N(C)C1
- pKi [2]: 6.26
- pKi [1]: 7.77

SMILES: NCCc1ccc(O)c(O)c1
- pKi [2]: 6.26
- pKi [1]: 6.26

SMILES: COc1ccccc1N1CCN(CCCCN2C(=O)c3ccccc3C2=O)CC1 [2-{4-[4-(2-Methoxy-phenyl)-piperazin-1-yl]-butyl}-isoindole-1,3-dione]
- pKi [1]: 7.10

SMILES: CN1C[C@H](C(=O)N[C@]2(C)O[C@@]3(O)[C@@H]4CCCN4C(=O)[C@H](Cc4ccccc4)N3C2=O)C=C2c3cccc4[nH]cc(c34)C[C@H]21 [12'-hydroxy-2'-methyl-5'alpha-(phenylmethyl)ergotaman-3',6',18-trione]
- pKi [2]: 8.52
- pKi [1]: 7.77

SMILES: O=C1CC2(CCCC2)CC(=O)N1CCCCN1CCN(c2ncccn2)CC1 [BUSPAR]
- pKi [1]: 6.43

SMILES: CC(C)NCC(O)COc1cccc2[nH]ccc12 (stereo not given) [LB-46]
- pKi [2]: 7.51
- pKi [1]: 6.26

SMILES: CN1C[C@@H](NS(=O)(=O)N(C)C)C[C@@H]2c3cccc4c3c(cn4C)C[C@H]21 [MESULERGINE]
- pKi [2]: 6.26
- pKi [1]: 8.03

SMILES: CN1C[C@H](CNC(=O)OCc2ccccc2)C[C@@H]2c3cccc4c3c(cn4C)C[C@H]21 [METERGOLINE]
- pKi [2]: 6.56
- pKi [1]: 7.80

SMILES: CNS(=O)(=O)Cc1ccc2[nH]cc(CCN(C)C)c2c1 [Sumax]
- pKi [1]: 6.26

SMILES: COc1cc(N)c(Cl)cc1C(=O)NC1CN2CCC1CC2 (stereo not given) [ZACOPRIDE,R]
- pKi [1]: 6.26

SMILES: NCCc1c[nH]c2ccc(C(N)=O)cc12 [[3H]-5-carboxamidotryptamine]
- pKi [1]: 9.35

SMILES: CSc1ccc2c(c1)C(N1CCN(C)CC1)Cc1ccccc1S2 (stereo not given) [methanesulfonic acid;1-methyl-4-(3-methylsulfanyl-5,6-dihydrobenzo[b][1]benzothiepin-5-yl)piperazine]
- pKi [2]: 8.06
